Assay results reported in PubChem BioAssay AID330 (DTP/NCI, 2004).
Where “and” joins values, the source holds several entries; their conditions need not be identical. Equal entries are not always repeated. Inconclusive results and toxic doses are left out. Rule for the calls: active = survival T/C of 150% or more; inactive = T/C below 125% in these data.

System: P388 leukemia ip, CD2F1 mice, survival T/C
Experiment: NCI In Vivo Anticancer Drug Screen. Data for tumor model P388 Leukemia (intraperitoneal) in CD2F1 (CDF1) mice
Conditions: endpoint: median survival time, higher = longer survival
How it was run: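 Mice carrying the transplanted tumor received test compound or vehicle. Survival was recorded in each group, and the value is the treated-group measurement divided by that of the vehicle-treated control group.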

[1] = dose: 6.25 mg/kg/injection, schedule: Q01DX009 (ip), vehicle: saline with Tween-80
[2] = dose: 12.5 mg/kg/injection, schedule: Q01DX009 (ip), vehicle: saline with Tween-80
[3] = dose: 25.0 mg/kg/injection, schedule: Q01DX009 (ip), vehicle: saline with Tween-80
[4] = dose: 50.0 mg/kg/injection, schedule: Q01DX009 (ip), vehicle: saline with Tween-80
[5] = dose: 100.0 mg/kg/injection, schedule: Q01DX009 (ip), vehicle: saline with Tween-80
[6] = dose: 200.0 mg/kg/injection, schedule: Q01DX009 (ip), vehicle: saline with Tween-80
[7] = dose: 50.0 mg/kg/injection, schedule: Q01DX009 (ip), vehicle: Klucel (hydroxypropylcellulose) (HPC)
[8] = dose: 100.0 mg/kg/injection, schedule: Q01DX009 (ip), vehicle: Klucel (hydroxypropylcellulose) (HPC)
[9] = dose: 200.0 mg/kg/injection, schedule: Q01DX009 (ip), vehicle: Klucel (hydroxypropylcellulose) (HPC)
[10] = dose: 100.0 mg/kg/injection, schedule: Q01DX009 (ip), vehicle: saline
[11] = dose: 200.0 mg/kg/injection, schedule: Q01DX009 (ip), vehicle: saline
[12] = dose: 400.0 mg/kg/injection, schedule: Q01DX009 (ip), vehicle: saline
[13] = dose: 60.0 mg/kg/injection, schedule: Q01DX005 (ip), vehicle: saline with Tween-80
[14] = dose: 120.0 mg/kg/injection, schedule: Q01DX005 (ip), vehicle: saline with Tween-80
[15] = dose: 240.0 mg/kg/injection, schedule: Q01DX005 (ip), vehicle: saline with Tween-80
[16] = dose: 100.0 mg/kg/injection, schedule: Q04DX003 (ip), vehicle: saline with Tween-80
[17] = dose: 200.0 mg/kg/injection, schedule: Q04DX003 (ip), vehicle: saline with Tween-80
[18] = dose: 50.0 mg/kg/injection, schedule: Q01DX005 (ip), vehicle: saline with Tween-80
[19] = dose: 100.0 mg/kg/injection, schedule: Q01DX005 (ip), vehicle: saline with Tween-80
[20] = dose: 200.0 mg/kg/injection, schedule: Q01DX005 (ip), vehicle: saline with Tween-80

Measured: T/C

CCN1CC2c3cc(OC)c(OC)cc3CC(c3ccccc3)C2C1 (stereo not drawn)
inactive: [1] 120 % of control | [2] 120 % of control | [3] 100 % of control

CO[C@H](C(=O)[C@@H](O)[C@@H](C)O)[C@@H]1Cc2cc3cc(O)c(C)c(O)c3c(O)c2C(=O)[C@H]1O
inactive: dose: 8.0 mg/kg/injection, schedule: Q01DX009 (ip), vehicle: water 107 % of control | dose: 16.0 mg/kg/injection, schedule: Q01DX009 (ip), vehicle: water 114 % of control | dose: 32.0 mg/kg/injection, schedule: Q01DX009 (ip), vehicle: water 100 % of control

O=C(c1ccccc1)C(SSN1CCOCC1)C(=O)c1ccccc1
inactive: [4] 91 % of control | [5] 100 % of control | [6] 106 % of control

CC(C(=O)O)c1cccc2nc(-c3ccccc3)oc12 (stereo not drawn)
inactive: [5] 112 % of control | [6] 102 % of control

O=C1CCC(C(Sc2ccccc2)Sc2ccccc2)C1 (stereo not drawn)
inactive: [7] 110 % of control | [8] 106 % of control | [9] 93 % of control

COC[C@H]1OC(=O)c2coc3c2[C@@]1(C)C1=C(C3=O)[C@@H]2CCC(=O)[C@@]2(C)C[C@H]1OC(C)=O
inactive: dose: 0.31 mg/kg/injection, schedule: Q01DX009 (ip), vehicle: saline with Tween-80 115 % of control | dose: 2.5 mg/kg/injection, schedule: Q01DX009 (ip), vehicle: saline with Tween-80 99 % of control and 90 % of control

COc1cc(CO)ccc1O
inactive: [10] 102 % of control and 105 % of control | [11] 89 % of control and 93 % of control | [12] 99 % of control and 104 % of control | dose: 600.0 mg/kg/injection, schedule: Q01DX009 (ip), vehicle: saline 107 % of control and 89 % of control

Clc1nn2cnnc2c2ncccc12
inactive: dose: 12.5 mg/kg/injection, schedule: Q01DX009 (ip), vehicle: Klucel (hydroxypropylcellulose) (HPC) 91 % of control | dose: 25.0 mg/kg/injection, schedule: Q01DX009 (ip), vehicle: Klucel (hydroxypropylcellulose) (HPC) 96 % of control | [7] 92 % of control and 97 % of control

COc1ccc(-c2nnc(N)o2)cc1OC
inactive: [13] 107 % of control | [14] 98 % of control | [15] 103 % of control

CC1(OC(=O)Nc2ccccc2)CCCCC1
inactive: [16] 96 % of control | [17] 100 % of control | dose: 400.0 mg/kg/injection, schedule: Q04DX003 (ip), vehicle: saline with Tween-80 97 % of control

CC(=O)SC12CCCN1C(=O)C1CCCN1C2=O (stereo not drawn)
inactive: dose: 100.0 mg/kg/injection, schedule: Q04DX002 (ip), vehicle: saline 100 % of control | dose: 200.0 mg/kg/injection, schedule: Q04DX002 (ip), vehicle: saline 111 % of control | dose: 400.0 mg/kg/injection, schedule: Q04DX002 (ip), vehicle: saline 117 % of control

O=C(O)c1ccc(N/N=C/C(F)(F)F)cc1
inactive: dose: 60.0 mg/kg/injection, schedule: Q01DX005 (ip), vehicle: saline + Tween-80 + alcohol 96 % of control | dose: 120.0 mg/kg/injection, schedule: Q01DX005 (ip), vehicle: saline + Tween-80 + alcohol 94 % of control | dose: 240.0 mg/kg/injection, schedule: Q01DX005 (ip), vehicle: saline + Tween-80 + alcohol 102 % of control

O=S(=O)(c1ccc(NC(=S)NCc2ccncc2)cc1)N1CCCCC1
inactive: [7] 97 % of control | [8] 95 % of control | [9] 98 % of control

N#Cc1c2c(c(=O)n3c1[nH]c1ccccc13)CCC2
inactive: [13] 100 % of control | [14] 93 % of control | [15] 94 % of control

O=C(c1ccccc1)c1nc(-c2ccccc2)oc1-c1ccccc1
inactive: dose: 100.0 mg/kg/injection, schedule: Q01DX001 (ip), vehicle: saline 100 % of control | dose: 200.0 mg/kg/injection, schedule: Q01DX001 (ip), vehicle: saline 108 % of control | dose: 400.0 mg/kg/injection, schedule: Q01DX001 (ip), vehicle: saline 99 % of control

CNc1cn(C2OC(CO)C(O)C2O)c(=O)[nH]c1=O (stereo not drawn)
inactive: dose: 50.0 mg/kg/injection, schedule: Q01DX005 (ip), vehicle: saline 122 % of control | dose: 100.0 mg/kg/injection, schedule: Q01DX005 (ip), vehicle: saline 110 % of control | dose: 200.0 mg/kg/injection, schedule: Q01DX005 (ip), vehicle: saline 105 % of control

C/C=C(\C)C(C)(C#N)Nc1ccccc1 (stereo not drawn)
inactive: [6] 90 % of control

CC1Cc2ccc(OCCN(C)C)cc2C1=O (stereo not drawn)
inactive: [18] 98 % of control | [19] 99 % of control

N#Cc1ccc(CC(CC(=O)c2ccccc2)c2ccccc2)cc1 (stereo not drawn)
inactive: [3] 91 % of control | [4] 89 % of control | [5] 89 % of control | [6] 89 % of control

CC(=O)Oc1c(N)c(C)cc(C)c1F
inactive: dose: 1.56 mg/kg/injection, schedule: Q01DX009 (ip), vehicle: saline with Tween-80 101 % of control | dose: 3.12 mg/kg/injection, schedule: Q01DX009 (ip), vehicle: saline with Tween-80 93 % of control | [1] 100 % of control | [2] 96 % of control

CCCCCCCCCCSCC
inactive: [10] 95 % of control | dose: 100.0 mg/kg/injection, schedule: Q04DX003 (ip), vehicle: saline 100 % of control | [11] 100 % of control | dose: 200.0 mg/kg/injection, schedule: Q04DX003 (ip), vehicle: saline 91 % of control | [12] 104 % of control | dose: 400.0 mg/kg/injection, schedule: Q04DX003 (ip), vehicle: saline 100 % of control

Cc1ccc(S(=O)(=O)/C=C/CCl)cc1
inactive: [18] 103 % of control | [19] 113 % of control

COc1cccc2c1C(=O)c1c(O)c3c(c(O)c1C2=O)C[C@@](O)(C(C)=O)C[C@@H]3OC1CC(NCC(c2ccccc2)c2ccccc2)C(O)C(C)O1 (stereo partly drawn)
inactive: dose: 6.25 mg/kg/injection, schedule: Q04DX003 (ip), vehicle: water 100 % of control | dose: 12.5 mg/kg/injection, schedule: Q04DX003 (ip), vehicle: water 101 % of control | dose: 25.0 mg/kg/injection, schedule: Q04DX003 (ip), vehicle: water 105 % of control | dose: 50.0 mg/kg/injection, schedule: Q04DX003 (ip), vehicle: water 110 % of control | dose: 100.0 mg/kg/injection, schedule: Q04DX003 (ip), vehicle: water 117 % of control

O=C1NC(CCCl)C(=O)NC1CCCl (stereo not drawn)
inactive: [18] 96 % of control | [4] 110 % of control | dose: 50.0 mg/kg/injection, schedule: Q04DX003 (ip), vehicle: saline with Tween-80 95 % of control | [19] 100 % of control | [5] 95 % of control | [16] 100 % of control | [20] 100 % of control | [6] 110 % of control | [17] 100 % of control

O=C(O)C1CSC(c2ccccc2)N1 (stereo not drawn)
inactive: [2] 100 % of control and 101 % of control | [3] 102 % of control and 103 % of control | [4] 100 % of control | [5] 100 % of control

CON1C(=O)C(c2cccs2)=C2SCC=C21
inactive: dose: 15.0 mg/kg/injection, schedule: Q01DX005 (ip), vehicle: saline with Tween-80 107 % of control | dose: 30.0 mg/kg/injection, schedule: Q01DX005 (ip), vehicle: saline with Tween-80 112 % of control | [13] 112 % of control and 114 % of control | [14] 112 % of control

COC1=CC(=O)C(OC)=C(OC)C1=O
inactive: dose: 22.0 mg/kg/injection, schedule: Q01DX009 (ip), vehicle: saline with Tween-80 112 % of control | dose: 33.0 mg/kg/injection, schedule: Q01DX009 (ip), vehicle: saline with Tween-80 123 % of control | dose: 75.0 mg/kg/injection, schedule: Q01DX009 (ip), vehicle: saline with Tween-80 104 % of control

Cc1ccno1
inactive: dose: 50.0 mg/kg/injection, schedule: Q01DX009 (ip), vehicle: saline 105 % of control | [10] 105 % of control | [11] 105 % of control | [12] 100 % of control

CCC(CC)C(Nc1nncs1)Nc1nncs1
inactive: [18] 90 % of control | [19] 112 % of control | [20] 116 % of control
